# Results from PubChem BioAssay (NCI).
#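 Dose response: 5 concentrations. Exposure: 48 h. Format: 96-well plates. Endpoint: linear interpolation; highest concentration if not reached. GI50 is the concentration that inhibits growth by half. TGI: total growth inhibition.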
# What was measured:
# Experiment in all cases: DTP human tumour cell line panel, 48 h
# [1] = system: SNB-75 CNS
# [2] = system: MCF7 breast
# [3] = system: SK-MEL-5 melanoma
# [4] = system: SN12C renal
# [5] = system: OVCAR-8 ovarian
# [6] = system: T-47D breast
# [7] = system: RXF 393 renal
# [8] = system: A498 renal
# [9] = system: HCT-15 colon
# [10] = system: SW-620 colon
# [11] = system: SF-539 CNS
# [12] = system: ACHN renal
# [13] = system: NCI-H460 lung
# [14] = system: MOLT-4 leukemia
# [15] = system: HCT-116 colon
# [16] = system: MDA-MB-468 breast
# [17] = system: CAKI-1 renal
# [18] = system: PC-3 prostate
# [19] = system: MALME-3M melanoma
# [20] = system: A549 NSCLC
# [21] = system: DU-145 prostate
# [22] = system: NCI-H226 lung
# [23] = system: NCI-H23 lung
# [24] = system: HT29 colon
# [25] = system: HOP-62 NSCLC
# [26] = system: MDA-MB-231 breast
# [27] = system: IGROV1 ovarian
# [28] = system: HS 578T breast
# [29] = system: K-562 leukemia
# [30] = system: KM12 colon
# [31] = system: HOP-92 NSCLC
# [32] = system: U251 CNS
# [33] = system: OVCAR-3 ovarian
# [34] = system: SR leukemia
# [35] = system: LOX IMVI melanoma
# [36] = system: EKVX NSCLC
# [37] = system: HCC-2998 colon
# [38] = system: HL-60(TB) leukemia
# [39] = system: OVCAR-4 ovarian
# [40] = system: M14 melanoma
# [41] = system: COLO 205 colon
# [42] = system: SK-MEL-28 melanoma
# [43] = system: BT-549 breast
# [44] = system: UO-31 renal
# [45] = system: NCI-H522 lung
# [46] = system: SF-295 CNS
# [47] = system: 786-0 renal
# [48] = system: TK-10 renal
# [49] = system: UACC-62 melanoma
# [50] = system: NCI/ADR-RES ovarian
# [51] = system: SF-268 CNS
# [52] = system: OVCAR-5 ovarian
# [53] = system: SNB-19 CNS
# [54] = system: SK-OV-3 ovarian
# [55] = system: CCRF-CEM leukemia
# [56] = system: SK-MEL-2 melanoma
# [57] = system: MDA-MB-435
# [58] = system: UACC-257 melanoma
smiles,measurement,setting,value
CCCn1c(=O)c2[nH]c(-c3ccc(OCc4nc5ccccc5[nH]4)cc3)nc2n(CCC)c1=O,GI50,[1],1.63 µM
same,TGI,[1],5.21 µM
same,GI50,[2],3.32 µM
same,TGI,[2],18.6 µM
same,GI50,[3],4.05 µM
same,TGI,[3],28 µM
same,GI50,[4],9.67 µM
same,TGI,[4],45.7 µM
same,GI50,[5],8.28 µM
same,TGI,[5],45.4 µM
same,GI50,[6],27.9 µM
same,TGI,[6],> 100 µM
same,GI50,[7],2.06 µM
same,TGI,[7],6.94 µM
same,GI50,[8],14.3 µM
same,TGI,[8],32.3 µM
same,GI50,[9],31.9 µM
same,TGI,[9],> 100 µM
same,GI50,[10],18 µM
same,TGI,[10],> 100 µM
same,GI50,[11],2.12 µM
same,TGI,[11],5.25 µM
same,GI50,[12],5 µM
same,TGI,[12],24.9 µM
same,GI50,[13],3.7 µM
same,TGI,[13],15.1 µM
same,GI50,[14],> 100 µM
same,TGI,[14],> 100 µM
same,GI50,[15],3.94 µM
same,TGI,[15],> 100 µM
same,GI50,[16],3.13 µM
same,TGI,[16],16.1 µM
same,GI50,[17],2.95 µM
same,TGI,[17],11.9 µM
same,GI50,[18],17.6 µM
same,TGI,[18],> 100 µM
same,GI50,[19],3.43 µM
same,TGI,[19],16.4 µM
same,GI50,[20],5.92 µM
same,TGI,[20],> 100 µM
same,TGI,[21],> 100 µM
same,GI50,[22],2.4 µM
same,TGI,[22],7.25 µM
same,GI50,[23],5.95 µM
same,TGI,[23],18.1 µM
same,GI50,[24],13.2 µM
same,TGI,[24],> 100 µM
same,GI50,[25],8.39 µM
same,TGI,[25],24.3 µM
same,GI50,[26],3.37 µM
same,TGI,[26],12.6 µM
same,GI50,[27],15.3 µM
same,TGI,[27],42.8 µM
same,GI50,[28],2.3 µM
same,TGI,[28],7.76 µM
same,GI50,[29],> 100 µM
same,TGI,[29],> 100 µM
same,GI50,[30],> 100 µM
same,TGI,[30],> 100 µM
same,GI50,[31],5.18 µM
same,TGI,[31],25.3 µM
same,GI50,[32],3.83 µM
same,TGI,[32],18.4 µM
same,GI50,[33],5.46 µM
same,TGI,[33],23.4 µM
same,GI50,[34],> 100 µM
same,TGI,[34],> 100 µM
same,GI50,[35],3.47 µM
same,TGI,[35],14.7 µM
same,GI50,[36],23.5 µM
same,TGI,[36],> 100 µM
same,GI50,[37],11.9 µM
same,TGI,[37],> 100 µM
same,GI50,[38],> 100 µM
same,TGI,[38],> 100 µM
same,GI50,[39],2.99 µM
same,TGI,[39],53 µM
same,GI50,[40],26.2 µM
same,TGI,[40],> 100 µM
same,GI50,[41],> 100 µM
same,TGI,[41],> 100 µM
same,GI50,[42],33.5 µM
same,TGI,[42],> 100 µM
same,GI50,[43],8.41 µM
same,TGI,[43],45.5 µM
same,GI50,[44],14.5 µM
same,TGI,[44],43.4 µM
same,GI50,[45],11.3 µM
same,TGI,[45],34.3 µM
same,GI50,[46],3.04 µM
same,TGI,[46],13.3 µM
same,GI50,[47],2.83 µM
same,TGI,[47],10.6 µM
same,GI50,[48],6.89 µM
same,TGI,[48],22.2 µM
same,GI50,[49],12 µM
same,TGI,[49],28.8 µM
same,GI50,[50],19.2 µM
same,TGI,[50],> 100 µM
same,GI50,[51],9.2 µM
same,TGI,[51],38.8 µM
same,GI50,[52],46.5 µM
same,TGI,[52],> 100 µM
same,GI50,[53],13.9 µM
same,TGI,[53],33.1 µM
same,GI50,[54],15 µM
same,TGI,[54],32 µM
same,GI50,[55],> 100 µM
same,TGI,[55],> 100 µM
same,GI50,[56],17.6 µM
same,TGI,[56],34.4 µM
same,GI50,[57],13 µM
same,TGI,[57],> 100 µM
same,GI50,[58],48 µM
same,TGI,[58],> 100 µM
